For orientation: IC50 means the point on the concentration scale where inhibition reaches its midpoint.

The target of this test is T1, zebrafish mPRα (membrane progestin receptor alpha, Paqr7) (Danio rerio, UniProt Q801G2).
T1 sequence (Q801G2 1-354): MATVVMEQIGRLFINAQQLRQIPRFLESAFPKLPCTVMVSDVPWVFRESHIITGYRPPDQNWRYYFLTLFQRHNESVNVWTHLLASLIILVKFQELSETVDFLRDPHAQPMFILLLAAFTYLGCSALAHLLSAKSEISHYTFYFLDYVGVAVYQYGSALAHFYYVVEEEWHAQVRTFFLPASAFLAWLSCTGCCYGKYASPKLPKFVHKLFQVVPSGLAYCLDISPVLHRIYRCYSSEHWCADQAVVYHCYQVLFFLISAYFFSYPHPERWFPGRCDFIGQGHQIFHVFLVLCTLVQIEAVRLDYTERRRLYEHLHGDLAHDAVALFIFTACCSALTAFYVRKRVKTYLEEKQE
Description: [3H]-DHP competitive radioligand binding, filtration assay.

As for `C=C[C@]12CCC(=O)C=C1CC[C@H]1[C@@H]3CC[C@H](C(C)=O)[C@@]3(C)CC[C@@H]12` [02–0, l0-ethenyl-l9-norprogesterone], the IC50 is 2000 nM. That is a single-digit micromolar value.
Under `C[C@@H](O)[C@@]1(O)CC[C@H]2[C@@H]3CCC4=CC(=O)CC[C@]4(C)[C@H]3CC[C@@]21C` [DHP, 17, 20β-dihydroxy-4-pregnen-3-one] stands ~100 nM.
